The text below walks through data of patent US7598420B1, “Rasagiline formulations and processes for their preparation” (Teva Pharmaceutical Industries, Ltd., priority 2005, dated 2009).

The test system of series [1] is monoamine oxidase enzyme Type-B (MAO-B). As to conditions: cited from earlier work.
The conditions of series [2]: 80° C.-100° C., presence of a chloride ion source and low pH.

In the case of `C#CCN[C@@H]1CCc2ccccc21` [(R)-PAI, N-propargyl-1(R)-aminoindan], in series [1], the MAO-B inhibitory activity entry is “active MAO-B inhibitor”. Further, in series [1] (compared with the corresponding racemic form), the “degree of selectivity for MAO-B inhibition” value is “surprisingly higher than that of the corresponding racemic form”.

On to `C#CCN[C@H]1CCc2ccccc21` [(S)-PAI], for which the MAO-B inhibitory activity entry in series [1] is recorded as “extremely low MAO-B inhibitory activity”.

For `C#CCN[C@@H]1CCc2ccccc21.CS(=O)(=O)O` [rasagiline mesylate, N-propargyl-1(R)-aminoindan mesylate], in series [2], the “chlorination of the triple bond to form chlorinated allyl aminoindans (2-chloro and cis-3-chloro)” value is given as “susceptible to chlorination”.
